According to ChEMBL document CHEMBL1201862, “PubChem BioAssay data set” (2004):
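Cells were grown in 96-well plates and exposed to each compound for 48 hours at five concentrations; endpoints were interpolated linearly between bracketing concentrations, or set to the highest concentration if not reached. Abbreviation: GI50, concentration required for 50% inhibition of growth.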 Active and inactive are the calls of the source. No stated cut-off is given here; in the data, active = GI50 up to about 1.1 µM and inactive = higher.

Columns and labels:
Assay in all cases: DTP human tumour cell line panel, 48 h
[1] = system: EKVX
[2] = system: HOP-92
[3] = system: OVCAR-4
[4] = system: PC-3
[5] = system: NCI-H226
[6] = system: UACC-62
[7] = system: MCF7
[8] = system: HL-60
[9] = system: ACHN
[10] = system: SK-OV-3
[11] = system: DU-145
[12] = system: UACC-257
[13] = system: SF-539
[14] = system: TK-10
[15] = system: HCC 2998
[16] = system: OVCAR-5
[17] = system: KM12
[18] = system: A549
[19] = system: A498
[20] = system: Hs-578T

Compound | GI50 [1] | GI50 [2] | GI50 [3] | GI50 [4] | GI50 [5] | GI50 [6] | GI50 [7] | GI50 [8] | GI50 [9] | GI50 [10] | GI50 [11] | GI50 [12] | GI50 [13] | GI50 [14] | GI50 [15] | GI50 [16] | GI50 [17] | GI50 [18] | GI50 [19] | GI50 [20]
O=C1c2ccccc2-c2nc3ccc(O)cc3n21 | > 100 µM (inactive) | > 100 µM (inactive) | > 100 µM (inactive) | > 100 µM (inactive) | > 100 µM (inactive) | > 100 µM (inactive) | > 100 µM (inactive) | > 100 µM (inactive) | > 100 µM (inactive) | > 100 µM (inactive) | > 100 µM (inactive) | > 100 µM (inactive) | > 100 µM (inactive) | > 100 µM (inactive) | > 100 µM (inactive) | > 100 µM (inactive) | > 100 µM (inactive) | > 100 µM (inactive) |  | 
OC(Cc1ccccc1)(Cc1ccccc1)c1ccccc1 | 12.3 µM (inactive) | 16.9 µM (inactive) | 16.9 µM (inactive) | 18.7 µM (inactive) | 18.4 µM (inactive) | 16.9 µM (inactive) |  | 22 µM (inactive) | 18.4 µM (inactive) |  | 17.7 µM (inactive) | 18.5 µM (inactive) |  | 19.8 µM (inactive) |  | 17.2 µM (inactive) | 18.3 µM (inactive) | 19.5 µM (inactive) | 19.9 µM (inactive) | 
CC(=O)Oc1cc(OC(C)=O)c2c(C)cc(=O)oc2c1 | > 100 µM (inactive) |  | > 100 µM (inactive) | > 100 µM (inactive) | > 100 µM (inactive) | > 100 µM (inactive) | 76.2 µM (inactive) |  | > 100 µM (inactive) | > 100 µM (inactive) | > 100 µM (inactive) | > 100 µM (inactive) | 36.1 µM (inactive) | 97.7 µM (inactive) |  | > 100 µM (inactive) | > 100 µM (inactive) | > 100 µM (inactive) | 41 µM (inactive) | > 100 µM (inactive)
CCC/C=C/c1cc2c(cc1O)CC[C@@H]1[C@@H]2CC[C@]2(C)[C@@H](O)CC[C@@H]12 | 19.2 µM (inactive) | 20.3 µM (inactive) | 19 µM (inactive) | 15.8 µM (inactive) | 24.7 µM (inactive) | 14.5 µM (inactive) | 25.5 µM (inactive) |  | 16.7 µM (inactive) | 26.8 µM (inactive) |  | 15.8 µM (inactive) |  | 20.7 µM (inactive) | 21.5 µM (inactive) | 18.4 µM (inactive) | 17.3 µM (inactive) | 18.1 µM (inactive) | 17.2 µM (inactive) | 21.7 µM (inactive)
CN(C)C(=O)OC(Cn1cncn1)c1ccc(Cl)cc1Cl (stereo unspecified) | > 100 µM (inactive) | > 100 µM (inactive) | > 100 µM (inactive) |  | > 100 µM (inactive) | > 100 µM (inactive) |  | > 100 µM (inactive) | > 100 µM (inactive) | > 100 µM (inactive) |  | > 100 µM (inactive) | > 100 µM (inactive) | > 100 µM (inactive) | > 100 µM (inactive) | > 100 µM (inactive) | > 100 µM (inactive) | > 100 µM (inactive) | > 100 µM (inactive) | 
COc1ccc2c(c1)C1OCCNC1CC2 (stereo unspecified) | > 100 µM (inactive) |  |  | > 100 µM (inactive) | > 100 µM (inactive) | > 100 µM (inactive) | > 100 µM (inactive) | > 100 µM (inactive) | > 100 µM (inactive) | > 100 µM (inactive) | > 100 µM (inactive) | > 100 µM (inactive) | > 100 µM (inactive) | > 100 µM (inactive) |  | > 100 µM (inactive) | > 100 µM (inactive) | > 100 µM (inactive) | 40.6 µM (inactive) | > 100 µM (inactive)
O=S1(=O)OCCCOS(=O)(=O)C1Br | > 100 µM (inactive) |  | > 100 µM (inactive) | > 100 µM (inactive) | > 100 µM (inactive) | > 100 µM (inactive) | > 100 µM (inactive) |  | > 100 µM (inactive) | > 100 µM (inactive) | > 100 µM (inactive) | > 100 µM (inactive) | > 100 µM (inactive) | > 100 µM (inactive) | > 100 µM (inactive) | > 100 µM (inactive) | > 100 µM (inactive) | > 100 µM (inactive) |  | 
CN(CC(=O)O)S(=O)(=O)c1ccc(Cl)cc1 | > 100 µM (inactive) | > 100 µM (inactive) | > 100 µM (inactive) |  | > 100 µM (inactive) | > 100 µM (inactive) |  | > 100 µM (inactive) | > 100 µM (inactive) | > 100 µM (inactive) |  | > 100 µM (inactive) | > 100 µM (inactive) | > 100 µM (inactive) | > 100 µM (inactive) | > 100 µM (inactive) | > 100 µM (inactive) | > 100 µM (inactive) | > 100 µM (inactive) | 
O=C(Cc1ccccc1)c1ccc2[nH]c(=O)oc2c1 | 12.5 µM (inactive) |  |  | 41.3 µM (inactive) | 1.22 µM (inactive) | 58.5 µM (inactive) | 43.5 µM (inactive) | 50.4 µM (inactive) | 41.4 µM (inactive) | 76.2 µM (inactive) | 62.2 µM (inactive) | 43.2 µM (inactive) | 32.2 µM (inactive) | 97.3 µM (inactive) |  | > 100 µM (inactive) | 19 µM (inactive) |  | > 100 µM (inactive) | 1.03 µM (active)
C[n+]1cn(-c2nc3ccccc3nc2[N-]S(=O)(=O)c2ccccc2)c2ccccc21 | > 100 µM (inactive) | > 100 µM (inactive) | > 100 µM (inactive) | > 100 µM (inactive) | > 100 µM (inactive) | > 100 µM (inactive) | > 100 µM (inactive) | > 100 µM (inactive) | > 100 µM (inactive) | > 100 µM (inactive) |  | > 100 µM (inactive) | > 100 µM (inactive) | > 100 µM (inactive) | > 100 µM (inactive) | > 100 µM (inactive) | > 100 µM (inactive) | > 100 µM (inactive) |  | > 100 µM (inactive)
CCOC(=O)N/N=C(\Cc1ccccc1)OCC | > 100 µM (inactive) | > 100 µM (inactive) | > 100 µM (inactive) | > 100 µM (inactive) |  | > 100 µM (inactive) | > 100 µM (inactive) |  | > 100 µM (inactive) | > 100 µM (inactive) | > 100 µM (inactive) | > 100 µM (inactive) | > 100 µM (inactive) | > 100 µM (inactive) | > 100 µM (inactive) | > 100 µM (inactive) | > 100 µM (inactive) | > 100 µM (inactive) |  | 
CCOC(=O)/N=C(\N)SCc1ccccc1 | > 100 µM (inactive) | > 100 µM (inactive) | > 100 µM (inactive) |  | 7.33 µM (inactive) | > 100 µM (inactive) |  | 50.9 µM (inactive) | > 100 µM (inactive) | > 100 µM (inactive) |  | > 100 µM (inactive) | > 100 µM (inactive) | > 100 µM (inactive) | > 100 µM (inactive) | > 100 µM (inactive) | > 100 µM (inactive) | > 100 µM (inactive) | > 100 µM (inactive) | 
Cc1nc(-c2cc3c(ccc4ccccc43)oc2=O)cc2c1c(=O)oc1ccc3ccccc3c12 | > 100 µM (inactive) | > 100 µM (inactive) | > 100 µM (inactive) | > 100 µM (inactive) |  | > 100 µM (inactive) | > 100 µM (inactive) | > 100 µM (inactive) | > 100 µM (inactive) | > 100 µM (inactive) | > 100 µM (inactive) | > 100 µM (inactive) | > 100 µM (inactive) | > 100 µM (inactive) | > 100 µM (inactive) | > 100 µM (inactive) | > 100 µM (inactive) | > 100 µM (inactive) | > 100 µM (inactive) | 
Cc1n[nH]c(=O)n1/N=C/c1cccc(Cl)c1 | 31 µM (inactive) |  | 76.9 µM (inactive) | > 100 µM (inactive) | > 100 µM (inactive) | > 100 µM (inactive) | > 100 µM (inactive) |  | > 100 µM (inactive) | > 100 µM (inactive) | 35.6 µM (inactive) | > 100 µM (inactive) | 89.5 µM (inactive) |  | > 100 µM (inactive) | > 100 µM (inactive) | > 100 µM (inactive) | > 100 µM (inactive) | 40.8 µM (inactive) | 17.7 µM (inactive)
O=C1C(Cl)C(c2ccc(O)cc2)N1n1cnc2ccccc2c1=O (stereo unspecified) | 29.7 µM (inactive) | 38.2 µM (inactive) | 25.5 µM (inactive) |  | > 100 µM (inactive) | 18.7 µM (inactive) |  | 24.5 µM (inactive) | 16 µM (inactive) | > 100 µM (inactive) |  | 43.6 µM (inactive) | 31.9 µM (inactive) | 40.6 µM (inactive) | 61.8 µM (inactive) | > 79.8 µM (inactive) | 51.1 µM (inactive) | > 100 µM (inactive) | > 100 µM (inactive) | 
O=C(Nc1cccc([N+](=O)[O-])c1)c1nnn(-c2cccc([N+](=O)[O-])c2)c1O | > 100 µM (inactive) |  |  | > 100 µM (inactive) | > 100 µM (inactive) | > 100 µM (inactive) | > 100 µM (inactive) | > 100 µM (inactive) | > 100 µM (inactive) | > 100 µM (inactive) | > 100 µM (inactive) | > 100 µM (inactive) | 0.0322 µM (active) |  |  | > 100 µM (inactive) | > 100 µM (inactive) | > 100 µM (inactive) | > 100 µM (inactive) | > 100 µM (inactive)
CCCC1(CC(=O)O)OCCc2c1[nH]c1ccccc21 (stereo unspecified) [PRODOLIC ACID] | > 100 µM (inactive) | > 100 µM (inactive) | > 100 µM (inactive) |  | > 100 µM (inactive) | > 100 µM (inactive) |  | > 100 µM (inactive) | > 100 µM (inactive) | > 100 µM (inactive) |  | > 100 µM (inactive) | > 100 µM (inactive) | > 100 µM (inactive) | > 100 µM (inactive) | > 100 µM (inactive) | > 100 µM (inactive) | > 100 µM (inactive) | > 100 µM (inactive) | 
